These results are taken from patent publication US20230295109A1, “PYRIDINONE COMPOUNDS FOR THE TREATMENT OF AUTOIMMUNE DISEASE” (F. Hoffmann-La Roche AG, priority 2020, published 2023).

The data set in a line: Parallel Artificial Membrane Permeability Assay (PAMPA). The format is in vitro ADME. Conditions: for Membrane Retention / Papp at 4 h: PAMPA; for Membrane Retention: pH 7.40, 4 hours; for Papp at 4 h: pH 7.4, pH 7.40, room temperature, read-out: PAMPA Pe; for PAMPA category: class from Pe and membrane retention. As for the experimental part:
PAMPA (Parallel Artificial Membrane Permeability Assay) is a first-line permeability screen for drug candidates. This assay mimics the transcellular absorption conditions using an artificial phospholipid membrane and generates a permeability value that can be used for compound ranking and optimization as well as input parameters for in silico models to predict intestinal absorption.
Permeation experiments are carried out in hydrophobic PVDF 96-well microtiter filter plates (MultiScreen Filter Plate, Millipore, #MAIPN4550). Each well is coated with PVDF membrane, which is prepared with 5 µL Dodecane (Sigma, D221104) that contains 1% lecithin (Sigma, P3556-1G).
The typical PAMPA experimental protocol is as follows: The donor plate is placed on a Teflon acceptor plate that has been pre-filled with 150 µL of 100 mM PBS buffer (2.6 g KH2PO4 and 18.5 g K2HPO4.3H2O are dissolved in about 1000 mL of ultra-pure water and mixed thoroughly. The pH is adjusted to 7.40 ± 0.05, using either 1 M sodium hydroxide or 1 M hydrochloric acid.) containing 5% DMSO. The filter on the bottom of each acceptor well is filled with 300 µL of 100 mM PBS buffer (2.6 g KH2PO4 and 18.5 g K2HPO4.3H2O are dissolved in about 1000 mL of ultra-pure water, mixed thoroughly. The pH was adjusted to 7.40 ± 0.05, using either 1 M sodium hydroxide or 1 M hydrochloric acid.). The resulting sandwich is incubated at room temperature under constant shaking (300 rpm) for 4 hours. The sandwich is then disassembled. Before incubation, spike 20 µL dosing solution and mix with 250 µL PBS and 130 µL quench solution (acetonitrile) as T0 sample. After incubation, collect 270 µL solutions from acceptor chamber, followed by the addition of 130 µL acetonitrile. Collect 20 µL solution from donor chamber and add 250 µL PBS and 130 µL acetonitrile. The concentration of compound in all samples are determined by LC-MS/MS and the equations for determining the permeability (Pe, 10^-6 cm/s ) are as follows.
VD is the volume of the donor well; VR is the volume of the acceptor well; Area is the active surface area of membrane; Time is the incubation time (14,400 s in this assay); CR and CD are the concentrations of compound in acceptor and donor solutions, respectively, at the completion of the assay; C0 is the concentration of compound in donor solution before incubation.
The main readout of the PAMPA assay is the permeability value Pe expressed in 10^-6 cm/s. Secondary readouts determined are the amounts of compound in the donor and acceptor compartments as well as compound retention in the membrane. Depending on the permeation rate and the membrane retention, compounds are classified as “low” (Pe < 0.2 and membrane retention <20%) or “medium & high” (Pe >= 0.2; or Pe < 0.2 and membrane retention >= 20%). Each sample is measured in triplicate; the standard deviation is determined for the permeation constant Pe.
On the technique in general: In PAMPA a lipid-coated filter parts donor from acceptor wells.

The structures appear in SMILES notation.

As to `CCc1nc(N2CCN(Cc3cnc(N4CC5(CNCCO5)C4)nc3)CC2)ccc1-c1cc(C)c(=O)n(C)c1` [Example 1, 5-[2-ethyl-6-[4-[[2-(5-oxa-2,8-diazaspiro[3.5]nonan-2-yl)pyrimidin-5-yl]methyl]piperazin-1-yl]-3-pyridyl]-1,3-dimethyl-pyridin-2-one], the “Membrane Retention” value is -11.520%; the Papp at 4 h is 0.57 ×10⁻⁶ cm/s; the PAMPA category entry is “medium & high (“medium & high” (Pe >= 0.2; or Pe < 0.2 and membrane retention >= 20%))”.
In the case of `Cc1cc(-c2ccc(N3CCN(Cc4cnc(N5CCNCC5)cn4)CC3)nc2C(C)C)cn(C)c1=O` [Example 8, 5-[2-isopropyl-6-[4-[(5-piperazin-1-ylpyrazin-2-yl)methyl]piperazin-1-yl]-3-pyridyl]-1,3-dimethyl-pyridin-2-one], the “Membrane Retention” value turned out to be 21.370%; the Papp at 4 h came to 0.95 ×10⁻⁶ cm/s; the PAMPA category result is “medium & high (“medium & high” (Pe >= 0.2; or Pe < 0.2 and membrane retention >= 20%))”.
In the case of `Cc1cc(-c2ccc(N3CCN(Cc4cnc(N5CCNCC5)nc4)CC3)nc2C(C)C)cn(C)c1=O` [Example 9, 5-[2-isopropyl-6-[4-[(2-piperazin-1-ylpyrimidin-5-yl)methyl]piperazin-1-yl]-3-pyridyl]-1,3-dimethyl-pyridin-2-one], the “Membrane Retention” value was found to be 27.230%; the Papp at 4 h came out at 0.78 ×10⁻⁶ cm/s; the PAMPA category result was “medium & high (“medium & high” (Pe >= 0.2; or Pe < 0.2 and membrane retention >= 20%))”.
